Measured values reported in PMC7960611, “A phase 1 study of crenigacestat (LY3039478), the Notch inhibitor, in Japanese patients with advanced solid tumors” (Investigational New Drugs, 2020).
“And” between values parts separate entries of the source, which are not always exact repeats. Identical values can stand only once. “Also recorded” adds a separate entry of the source. Like-named read-outs stand apart in the source and are kept apart here.

Tests used:
[1] = tested on: Japanese patients with advanced solid tumors; test: Safety assessment: adverse events (CTCAE v 4.0), DLT/DLET, phase 1 dose escalation; type: in vivo, human
Protocol: The study consisted of 2 dose levels of crenigacestat (25 mg and 50 mg), administered orally TIW prior to a meal. A cycle was defined as 28 days. Patients were admitted to the investigational site for 4 weeks through the entire first cycle but were discharged and managed on an outpatient basis on or after day 15 upon investigator discretion. The planned duration of treatment was not fixed. Treatment continued until disease progression, development of unacceptable toxicity, or any other discontinuation criteria were met.
Data were evaluated on an ongoing basis until the tolerability of crenigacestat for 50 mg was confirmed. Safety data, in particular adverse events (AEs), were the primary criteria for dose escalation. Dose escalation was driven for each treatment combination using the 3 + 3 method. Transition of dose level (from 25 to 50 mg) proceeded if the frequency of dose-limiting toxicity (DLT) observed in cycle 1 was <33% of patients in the first dose level (25 mg). For DLTs, an evaluable patient was defined as a patient who received ≥75% of the planned dose in cycle 1 or a patient who experienced DLT in cycle 1.
Adverse events were collected throughout the study and coded using Medical Dictionary for Regulatory Activities (MedDRA) terms (Version 22.0). […]

[2] = tested on: advanced solid tumors in Japanese patients; test: Efficacy assessment: tumor response (RECIST v1.1); type: in vivo, human
Protocol: Tumor response, including overall response rate, was measured using RECIST v1.1 [12] or the Response Assessment in Neuro-Oncology criteria for glioblastoma. Patient’s full extent of disease was also assessed via evaluation of performance status (ECOG). Where applicable, tumor measurements were performed by positron emission tomography response criteria of the European Organization for Research and Treatment of Cancer, as well as evaluation of tumor markers. To confirm objective responses, all lesions were radiologically assessed and the same radiologic method used at baseline and for the initial response determination was repeated at least 4 weeks following the initial observation of an objective response.

[3] = Pharmacokinetics: plasma concentrations by LC-MS/MS, noncompartmental analysis; type: in vivo; details: human; for AUC(0-inf) / Cmax / AUC(0-t): geometric mean (%CV); for AUC(0-t): read-out: AUC0–48
Protocol: All patients who received at least 1 dose of the study drug, and had sufficient samples collected, were included in the PK analysis. […] Plasma concentrations of crenigacestat were quantified using a validated liquid chromatography-tandem mass spectrometry (LC-MS/MS) assay. The PK parameters for crenigacestat were calculated by standard noncompartmental methods of analysis. The primary PK parameters for analysis were maximum plasma concentration (Cmax) and area under the plasma concentration-time curve (AUC) from time zero to infinity or over 1 dosing interval at steady state of crenigacestat.

[4] = tested on: non-Japanese patients with advanced or metastatic cancers; parameters: method as in PMID 30060061; details: TIW during a 28-day cycle; cited from earlier work
[5] = po, 25 mg, Day 1 (Dose 1), 25 mg oral TIW
[6] = po, 25 mg, Day 22 (Dose 10), 25 mg oral TIW
[7] = po, 50 mg, Day 1 (Dose 1), 50 mg oral TIW
[8] = po, 50 mg, Day 22 (Dose 10), 50 mg oral TIW

C[C@H](NC(=O)CCC(F)(F)F)C(=O)N[C@@H]1C(=O)N(CCO)c2ncccc2-c2ccccc21 [Crenigacestat, crenigacestat]
Serious adverse events (SAEs), discontinuation or death due to an AE ([1]; both treatment arms, on treatment or within 30 days of discontinuation): no patients who reported any serious adverse events (SAEs), discontinued study treatment due to an adverse event (AEs) or SAE, or died due to an AE
Recommended dose in Japanese patients ([1]; human, in vivo, po, 28 days): 50 mg
Complete or partial response to the treatment ([2]; 25 mg and 50 mg oral TIW, all patients): None of the patients had a complete or partial response; also recorded: no partial or complete responses
Best overall response: Complete response (CR) ([2]; 25 mg oral TIW (n = 4)): 0 n (%)
Best overall response: Partial response (PR) ([2]; 25 mg oral TIW (n = 4)): 0 n (%)
Best overall response: Progressive disease ([2]; 25 mg oral TIW (n = 4)): 4 (100.0) n (%)
Disease control rate (CR/PR/SD) ([2]; 25 mg oral TIW (n = 4)): 0 n (%)
Best overall response: Complete response (CR) ([2]; 50 mg oral TIW (n = 7)): 0 n (%)
Best overall response: Partial response (PR) ([2]; 50 mg oral TIW (n = 7)): 0 n (%)
Best overall response: Progressive disease ([2]; 50 mg oral TIW (n = 7)): 6 (85.7) n (%)
Disease control rate (CR/PR/SD) ([2]; 50 mg oral TIW (n = 7)): 1 (14.3) n (%)
Duration of stable disease ([2]; one patient with a desmoid tumor, 50-mg treatment arm): 22.5 months and 22.47 months
Tumor size shrinkage ([2]; one patient with a desmoid tumor, 50-mg treatment arm, first 8 cycles): 22.4% and 22.37%
AUC(0-inf) ([3]; Day 1 (Dose 1), 25 mg oral TIW): 1480 ng·h/mL
AUC(0-inf) ([3]; Day 1 (Dose 1), 50 mg oral TIW): 3080 ng·h/mL
Tmax ([3]; oral, postdose, each dose level, read-out: Median time to maximum plasma concentration (tmax)): ~2 h
half-life ([3]; po, 25 mg and 50 mg oral TIW, read-out: Mean t1/2 (converted)): ~4 h
Cmax [3, 5]: 324 ng/mL
AUC(0-t) [3, 5]: 1480 ng·h/mL
Tmax ([3]; po, 25 mg, Day 1 (Dose 1), 25 mg oral TIW, read-out: tmax, median (range)): 1.92 h
half-life ([3]; po, 25 mg, Day 1 (Dose 1), 25 mg oral TIW, read-out: t½, geometric mean (range) (converted)): 3.64 h
Cmax [3, 6]: 429 ng/mL
AUC(0-t) [3, 6]: 2070 ng·h/mL
Tmax ([3]; po, 25 mg, Day 22 (Dose 10), 25 mg oral TIW, read-out: tmax, median (range)): 1.88 h
half-life ([3]; po, 25 mg, Day 22 (Dose 10), 25 mg oral TIW, read-out: t½, geometric mean (range) (converted)): 4.19 h
Cmax [3, 7]: 670 ng/mL
AUC(0-t) [3, 7]: 3080 ng·h/mL
Tmax ([3]; po, 50 mg, Day 1 (Dose 1), 50 mg oral TIW, read-out: tmax, median (range)): 1.93 h
half-life ([3]; po, 50 mg, Day 1 (Dose 1), 50 mg oral TIW, read-out: t½, geometric mean (range) (converted)): 3.89 h
Cmax [3, 8]: 416 ng/mL
AUC(0-t) [3, 8]: 2090 ng·h/mL
Tmax ([3]; po, 50 mg, Day 22 (Dose 10), 50 mg oral TIW, read-out: tmax, median (range)): 1.94 h
half-life ([3]; po, 50 mg, Day 22 (Dose 10), 50 mg oral TIW, read-out: t½, geometric mean (range) (converted)): 3.67 h
Recommended phase 2 dose, monotherapy [4]: 50 mg
